The source of these data is patent publication US20240376097A1, “BCL-2 Inhibitor” (BeiGene Ltd., priority 2020, published 2024).

Experiment [1] has as its target recombinant human Bcl-2-G101V protein (Homo sapiens (Human), UniProt P10415, G101V). Put plainly: Bcl-2-G101V TR-FRET Assay. The class given is binding. As to conditions: Bcl-2 G101V mutant, TR-FRET; read-out: Biochemical assay (IC50, nM) Bcl-2 G101V. In a few lines:
(§1)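 TR-FRET read at excitation 337 nm with emission at 490 nm and 520 nm. Inhibition of Bcl-2-G101V binding to its ligand across increasing compound concentrations was calculated from the 490/520 nm fluorescence ratio, and IC50 values came from four-parameter logistic fits.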

The subject of experiment [2] is recombinant human Bcl-2-G101V protein. Nature of the experiment: Bcl-2-G101V TR-FRET Assay. The class given is binding. As to conditions: ratio of biochemical IC50 Bcl-2 G101V / Bcl-2 WT. In a few lines: as §1
For experiment [3], the system named is RS4;11 (BCL-2 dependent acute lymphoblastic leukemia cell line). Nature of the experiment: RS4;11 Cell Proliferation Assay. Format: cell-based. As to conditions: Homo sapiens, RS4-11, RS4;11 cells, read-out: Cellular proliferation assay (IC50, nM) RS4. In a few lines: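 Viability measured via CellTiter-Glo luminescence after a 48 h, 37 °C exposure to compounds (10 points, highest 1 μM). Seeding was 50,000 RS4;11 cells per well in 10% FBS RPMI-1640; IC50 given as mean.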

Experiment [4] relates to BCL-2 G101V knock-in cell line H96 (derive from RS4;11). Put plainly: Bcl 2-G101V Knock-In RS4;11 Cell Proliferation Assay. The class given is cell-based. As to conditions: Homo sapiens, RS4;11 Bcl-2 G101V knock-in clone H96, 48 hrs, CellTiter-GLO, read-out: Cellular proliferation assay (IC50, nM) RS4. In a few lines:
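CellTiter-Glo luminescence after 48 h, 37 °C compound treatment (10 concentrations, maximum 1 μM or 10 μM) gave mean IC50 values. Cells were 50,000 per well of H96, a BCL2-G101V knock-in single clone derived from RS4;11 by Cas9 editing.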

Experiment [5] deals with Recombinant human Bcl-2 protein (Homo sapiens (Human), UniProt P10415). Nature of the experiment: Bcl-2 TR-FRET Assay. As to conditions: Bcl-2 wild type, TR-FRET; read-out: Biochemical assay (IC50, nM) Bcl-2 WT. Format: binding. In a few lines:
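Displacement of FITC-labelled Bak peptide (0.5 nM) from 0.05 nM human Bcl-2, detected by TR-FRET with Tb-cryptate anti-6His antibody after 1 h at room temperature. Compounds, 10-point series, preincubated 0.5 h with protein in 20 mM potassium phosphate pH 7.5, 50 mM NaCl. IC50s fitted by four-parameter logistic.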

For `COc1cc(CN2CCN(C3CC4(CCN(c5ccc(C(=O)NS(=O)(=O)c6ccc(NC[C@H]7CC[C@](C)(O)CC7)c([N+](=O)[O-])c6)c(Oc6cnc7[nH]cc(F)c7c6)c5)CC4)C3)C(c3ccccc3C(C)C)C2)ccc1C1CC1` (some centres unmarked) [Example 161, 4-(2-(4-(4-cyclopropyl-3-methoxybenzyl)-2-(2-isopropylphenyl)piperazin-1-yl)-7-azaspiro[3.5]nonan-7-yl)-2-((3-fluoro-1H-pyrrolo[2,3-b]pyridin-5-yl)oxy)-N-((4-((((1r,4r)-4-hydroxy-4-methylcyclohexyl)methyl)amino)-3-nitrophenyl)sulfonyl) benzamide], the IC50 is 3.9 nM in experiment [1], 0.46 nM in experiment [3], 1.22 nM in experiment [4] and 0.42 nM in experiment [5]. The “Ratio of Bcl-2 G101V/WT” value in experiment [2] amounted to 6.8.
The matching figures for `COc1ccc(CN2CCN(C3CC4(CCN(c5ccc(C(=O)NS(=O)(=O)c6ccc(NC[C@H]7CC[C@](C)(O)CC7)c([N+](=O)[O-])c6)c(Oc6cnc7[nH]ccc7c6)c5)CC4)C3)C(c3ccccc3C(C)C)C2)cc1OC(F)(F)F` (some centres unmarked) [Example 163, 2-((1H-pyrrolo[2,3-b]pyridin-5-yl)oxy)-N-((4-((((1r,4r)-4-hydroxy-4-methylcyclohexyl)methyl)amino)-3-nitrophenyl)sulfonyl)-4-(2-(2-(2-isopropylphenyl)-4-(4-methoxy-3-(trifluoromethoxy)benzyl)piperazin-1-yl)-7-azaspiro[3.5]nonan-7-yl)benzamide]: 5.5 nM, 1.08 nM, 9.2 nM, 1.3 nM and 4.3.
For `CC(C)c1ccccc1C1CN(Cc2ccc3c(c2)OC(F)(F)O3)CCN1C1CC2(CCN(c3ccc(C(=O)NS(=O)(=O)c4ccc(NC[C@H]5CC[C@](C)(O)CC5)c([N+](=O)[O-])c4)c(Oc4cnc5[nH]ccc5c4)c3)CC2)C1` (some centres unmarked) [Example 168, 2-((1H-pyrrolo[2,3-b]pyridin-5-yl)oxy)-4-(2-(4-((2,2-difluorobenzo[d] [1,3]dioxol-5-yl)methyl)-2-(2-isopropylphenyl)piperazin-1-yl)-7-azaspiro[3.5]nonan-7-yl)-N-((4-((((1r,4r)-4-hydroxy-4-methylcyclohexyl)methyl)amino)-3-nitrophenyl)sulfonyl)benzamide], in that order: 4.6 nM, 0.48 nM, 1.68 nM, 0.79 nM and 5.9.
The matching figures for `COc1ccc(CN2CCN(C3CC4(CCN(c5ccc(C(=O)NS(=O)(=O)c6ccc(NC[C@H]7CC[C@](C)(O)CC7)c([N+](=O)[O-])c6)c(Oc6cnc7[nH]ccc7c6)c5)CC4)C3)C(c3ccccc3C(C)C)C2)cc1OC(F)F` (some centres unmarked) [Example 169, 2-((1H-pyrrolo[2,3-b]pyridin-5-yl)oxy)-4-(2-(4-(3-(difluoromethoxy)-4-methoxybenzyl)-2-(2-isopropylphenyl)piperazin-1-yl)-7-azaspiro[3.5]nonan-7-yl)-N-((4-((((1r,4r)-4-hydroxy-4-methylcyclohexyl)methyl)amino)-3-nitrophenyl)sulfonyl)benzamide]: 2.4 nM, 0.49 nM, 1.5 nM, 0.62 nM and 3.9.
For `CC(C)c1ccccc1C1CN(Cc2ccc(OC3CC3)cc2)CCN1C1CC2(CCN(c3ccc(C(=O)NS(=O)(=O)c4ccc(NC[C@H]5CC[C@](C)(O)CC5)c([N+](=O)[O-])c4)c(Oc4cnc5[nH]ccc5c4)c3)CC2)C1` (some centres unmarked) [Example 172, 2-((1H-pyrrolo[2,3-b]pyridin-5-yl)oxy)-4-(2-(4-(4-cyclopropoxybenzyl)-2-(2-isopropylphenyl)piperazin-1-yl)-7-azaspiro[3.5]nonan-7-yl)-N-((4-((((1r,4r)-4-hydroxy-4-methylcyclohexyl)methyl)amino)-3-nitrophenyl)sulfonyl)benzamide], the IC50 in experiment [1] was 1.9 nM; in experiment [3] it was 0.43 nM; in experiment [4] it was 1.64 nM; in experiment [5] it was 0.35 nM. Moreover, the “Ratio of Bcl-2 G101V/WT” value in experiment [2] worked out at 5.5.
The matching figures for `COc1ccc(CN2CCN(C3CC4(C3)CN(c3ccc(C(=O)NS(=O)(=O)c5ccc(NCC6CCOCC6)c([N+](=O)[O-])c5)c(Oc5cnc6[nH]ccc6c5)c3)C4)[C@H](c3ccccc3C(C)C)C2)cc1OC` [Example 173, (R)-2-((1H-pyrrolo[2,3-b]pyridin-5-yl)oxy)-4-(6-(4-(3,4-dimethoxybenzyl)-2-(2-isopropylphenyl)piperazin-1-yl)-2-azaspiro[3.3]heptan-2-yl)-N-((3-nitro-4-(((tetrahydro-2H-pyran-4-yl)methyl)amino)phenyl)sulfonyl) benzamide]: 0.11 nM, 0.18 nM, 0.6 nM, 0.017 nM and 6.5.
For `[2H]C([2H])([2H])Oc1ccc(CN2CCN(C3CC4(CCN(c5ccc(C(=O)NS(=O)(=O)c6ccc(NC[C@H]7CC[C@](C)(O)CC7)c([N+](=O)[O-])c6)c(Oc6cnc7[nH]ccc7c6)c5)CC4)C3)C(c3ccccc3C(C)C)C2)cc1OC([2H])([2H])[2H]` (some centres unmarked) [Example 175, 2-((1H-pyrrolo[2,3-b]pyridin-5-yl)oxy)-4-(2-(4-(3,4-bis(methoxy-d3)benzyl)-2-(2-isopropylphenyl)piperazin-1-yl)-7-azaspiro[3.5]nonan-7-yl)-N-((4-((((1r,4r)-4-hydroxy-4-methylcyclohexyl)methyl)amino)-3-nitrophenyl)sulfonyl)benzamide], in that order: 0.29 nM, 0.33 nM, 1 nM, 0.041 nM and 7.0.
For `CC(C)c1ccccc1C1CN(Cc2cccc(OC3CC3)c2)CCN1C1CC2(CCN(c3ccc(C(=O)NS(=O)(=O)c4ccc(NC[C@H]5CC[C@](C)(O)CC5)c([N+](=O)[O-])c4)c(Oc4cnc5[nH]ccc5c4)c3)CC2)C1` (some centres unmarked) [Example 178, 2-((1H-pyrrolo[2,3-b]pyridin-5-yl)oxy)-4-(2-(4-(3-cyclopropoxybenzyl)-2-(2-isopropylphenyl)piperazin-1-yl)-7-azaspiro[3.5]nonan-7-yl)-N-((4-((((1r,4r)-4-hydroxy-4-methylcyclohexyl)methyl)amino)-3-nitrophenyl)sulfonyl)benzamide], in that order: 1.5 nM, 0.64 nM, 4.87 nM, 0.52 nM and 2.9.
On to `COc1ccc(CN2CCN(C3CC4(C3)CN(c3ccc(C(=O)NS(=O)(=O)c5ccc(NCC6CCOCC6)c([N+](=O)[O-])c5)c(Oc5cnc6[nH]cc(F)c6c5)c3)C4)[C@H](c3ccccc3C(C)C)C2)cc1` [Example 183, (R)-2-((3-fluoro-1H-pyrrolo[2,3-b]pyridin-5-yl)oxy)-4-(6-(2-(2-isopropylphenyl)-4-(4-methoxybenzyl)piperazin-1-yl)-2-azaspiro[3.3]heptan-2-yl)-N-((3-nitro-4-(((tetrahydro-2H-pyran-4-yl)methyl)amino)phenyl)sulfonyl) benzamide], for which the IC50 in experiment [1] turned out to be 0.18 nM; in experiment [3] it was 0.1 nM; in experiment [4] it was 0.52 nM; in experiment [5] it was 0.096 nM. Besides, in experiment [2], the “Ratio of Bcl-2 G101V/WT” value was 1.8.
Consider `COc1ccc(CN2CCN(C3CC4(CCN(c5ccc(C(=O)NS(=O)(=O)c6ccc(NC[C@H]7CC[C@](C)(O)CC7)c([N+](=O)[O-])c6)c(Oc6cnc7[nH]ccc7c6)c5)CC4)C3)C(c3ccccc3C(C)C)C2)cc1OC1CC1` (some centres unmarked) [Example 186, 2-((1H-pyrrolo[2,3-b]pyridin-5-yl)oxy)-4-(2-(4-(3-cyclopropoxy-4-methoxybenzyl)-2-(2-isopropylphenyl)piperazin-1-yl)-7-azaspiro[3.5]nonan-7-yl)-N-((4-((((1r,4r)-4-hydroxy-4-methylcyclohexyl)methyl)amino)-3-nitrophenyl)sulfonyl)benzamide], for which the IC50 is 0.64 nM in experiment [1], 0.53 nM in experiment [3], 2.5 nM in experiment [4] and 0.15 nM in experiment [5]. Also, in experiment [2], the “Ratio of Bcl-2 G101V/WT” value amounted to 4.2.
